Molecules are shown by their SMILES. Values joined by “and” are separate entries in the source; they are usually repeats but may differ in a detail not shown here. Equal entries are not always repeated.

Data set [1] concerns MYCN, MCL-1, PARP, LC3I, LC3II, BRD-4, bcl-2 and BAX gene expression in BE-2c cells. Briefly: RNAseq gene expression analysis. Type of data set: cell-based. Also noted: RNAseq expression value, MYCN gene / RNAseq expression value, MCL-1 gene / RNAseq expression value, LCII gene / RNAseq expression value, LCI gene / RNAseq expression value, BRD-4 gene / RNAseq expression value, Bcl-2 gene / RNAseq expression value, BAX gene: unit not given here. The conditions noted are these: 18 h, TEM alone 1 μM. As for the experimental part: Total RNA was extracted using the RNeasy Micro Kit (Qiagen, Germantown, MD). Nano Drop was used to measure RNA concentration and purity and integrity was evaluated using Agilent Bioanalyzer System (Agilent Technologies, Santa Clara, CA). RNA sequencing and library preparation was performed using Maestro TruSeq Application (Perkin Elmer, Waltham, MA). Parameters used were optimized for 50 bp single-end reads with 20 million reads per sample. […] Gene expression analysis are reported for those pathways where protein analysis was performed (MYCN, MCL-1, PARP, LC3I, LC3II, BRD-4, bcl-2, and BAX).

In data set [2] the test system is BE2-c subcutaneous tumors. Kind of data set: Anti-tumor activity in BE2-c tumor bearing NSG mice. Type of data set: in vivo. The conditions noted are these: follow up study, dosing three times per week. As for the experimental part: A follow up study of the combination integrated control groups and modified dosing of MP1 plus TEM to three times per week at the doses described above. […] Tumor measurements were performed daily and treatments began on the first day the tumor achieved 2 mm^3 in size.

For data set [3] the following is noted: compared to untreated controls.
Protocol: NSG mice were injected subcutaneously with 5 × 10^5 BE2-c cells in a 50:50 PBS/Matrigel® solution. […] Bone marrow was collected at necropsy for a CFU-GM assay to assess bone marrow toxicity.
The test system of data set [4] is OXPHOS (OCR) and glycolysis (ECAR) in BE-2c cells. Kind of data set: Metabolic flux analysis and cell energy phenotype (XFp Seahorse). Type of data set: cell-based. The conditions noted are these: 18 h, metformin 5 mM. As for the experimental part:
Six wells of an XFp culture plate were seeded with 15,000 BE-2c cells/well in 80 μL DMEM with 10% FBS. […] The XFp Cell Energy Phenotype assay utilizes oligomycin as an inhibitor of ATP synthase and FCCP which is a mitochondrial uncoupling reagent. Oligomycin inhibits mitochondrial ATP production leading to a compensatory increase in glycolysis to meet energy demands. FCCP depolarizes the mitochondrial membrane driving the oxygen consumption rates higher as mitochondria restore polarization. The results were graphed on a grid indicating degree of aerobic/glycolytic metabolism and energetic/quiescent phenotypes.

With `CO[C@H]1C[C@@H]2CC[C@@H](C)[C@@](O)(O2)C(=O)C(=O)N2CCCC[C@H]2C(=O)O[C@H]([C@H](C)C[C@@H]2CC[C@@H](OC(=O)C(C)(CO)CO)[C@H](OC)C2)CC(=O)[C@H](C)/C=C(\C)[C@@H](O)[C@@H](OC)C(=O)[C@H](C)C[C@H](C)/C=C/C=C/C=C/1C` [TEM, temsirolimus], in data set [1], the “Change (fold change treatment over control), BAX gene” value is on record as −1.14; the “Change (fold change treatment over control), BRD-4 gene” value is reported as −1.06; the “Change (fold change treatment over control), Bcl-2 gene” value came to 1.45; the “Change (fold change treatment over control), MCL-1 gene” value is listed as −1.12. Also, in data set [1], the “Change (fold change treatment over control), MYCN gene” value is listed as 1.0 and the “Change (fold change treatment over control), PARP1 gene” value is −1.2. In data set [1] (replicates #1-#3), the “RNAseq expression value, BAX gene” value is 42.7 and 37.3 and 40.6; the “RNAseq expression value, BRD-4 gene” value is 70.4 and 71.4 and 72.7; the “RNAseq expression value, Bcl-2 gene” value was 49.2 and 52.0 and 47.7; the “RNAseq expression value, LCI gene” value is 5.1 and 4.4 (2×). Moreover, in data set [1] (replicates #1-#3), the “RNAseq expression value, LCII gene” value was 92.7 and 92.5 and 89.7; the “RNAseq expression value, MCL-1 gene” value was 281 and 282 and 276; the “RNAseq expression value, MYCN gene” value was 2264 and 2140 and 2232; the “RNAseq expression value, PARP1 gene” value is 580 and 617 and 599. Moreover, in data set [2], the Complete responses entry is “no complete responses”. Moreover, the “Bone marrow toxicity (CFU-GM assay)” value in data set [3] is on record as “unaffected”.

On to `CN(C)C(=N)N=C(N)N` [metformin], for which the “Effect on OXPHOS and glycolysis” value in data set [4] is given as “uncoupled OXPHOS metabolism without effects on glycolysis”.

(Values after article PMC6712804 (BMC Cancer, 2019).)
